In patent US12077503B2, “Substituted cyclic amides and their use as herbicides” (FMC CORPORATION, priority 2015, dated 2024):

Columns and labels:
Type in all cases: in vivo
[1] = tested on: velvetleaf (Abutilon theophrasti); assay: Test G Pre-Emergence Protocol; conditions: Abutilon theophrasti, pre-emergence, 312 h, evaluated after 13 days
Procedure, shortened: (§1)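 Test compound in 0.5% Tween 20 acetone/water (50:50) was applied at three rates (15.625, 62.5, 250 g/ha) to soil sown one day earlier. After 13 days plants were scored for injury, where 0 means unaffected and 100 means completely damaged.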

[2] = tested on: corn (Zea mays); assay: Test G Pre-Emergence Protocol; conditions: Zea mays, pre-emergence, 312 h, evaluated after 13 days
Procedure, shortened: as §1

[3] = tested on: giant foxtail (Setaria faberi); assay: Test G Pre-Emergence Protocol; conditions: Setaria faberi, pre-emergence, 312 h, evaluated after 13 days
Procedure, shortened: as §1

[4] = tested on: redroot pigweed (Amaranthus retroflexus); assay: Test G Pre-Emergence Protocol; conditions: Amaranthus retroflexus, pre-emergence, 312 h, evaluated after 13 days
Procedure, shortened: as §1

[5] = tested on: barnyardgrass (Echinochloa crus-galli); assay: Test G Pre-Emergence Protocol; conditions: Echinochloa crus-galli, pre-emergence, 312 h, evaluated after 13 days
Procedure, shortened: as §1

[6] = tested on: ivy-leaved morning glory (Ipomoea hederacea); assay: Test G Pre-Emergence Protocol; conditions: Ipomoea, pre-emergence, 312 h, evaluated after 13 days
Procedure, shortened: as §1

[7] = tested on: velvetleaf (Abutilon theophrasti); assay: Test G Post-Emergence Protocol; conditions: Abutilon theophrasti, post-emergence, 312 h
Procedure, shortened: (§2)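 Values are percent visual injury at 13 days after treatment (0 none, 100 total). Treatment was a post-emergence spray at 15.625, 62.5 or 250 g/ha on 8-day-old pot plants kept at 24/16 °C.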

[8] = tested on: corn (Zea mays); assay: Test G Post-Emergence Protocol; conditions: Zea mays, post-emergence, 312 h
Procedure, shortened: as §2

[9] = tested on: giant foxtail (Setaria faberi); assay: Test G Post-Emergence Protocol; conditions: Setaria faberi, post-emergence, 312 h
Procedure, shortened: as §2

[10] = tested on: redroot pigweed (Amaranthus retroflexus); assay: Test G Post-Emergence Protocol; conditions: Amaranthus retroflexus, post-emergence, 312 h
Procedure, shortened: as §2

[11] = tested on: barnyardgrass (Echinochloa crus-galli); assay: Test G Post-Emergence Protocol; conditions: Echinochloa crus-galli, post-emergence, 312 h
Procedure, shortened: as §2

[12] = tested on: ivy-leaved morning glory (Ipomoea hederacea); assay: Test G Post-Emergence Protocol; conditions: Ipomoea, post-emergence, 312 h
Procedure, shortened: as §2

With `CN1C[C@@H](c2ccc(C(F)(F)F)cc2)[C@H](C(=O)Nc2ccccn2)C1=O` (racemic) [Compound 1596] the pest or weed control at 15.625 g/ha ([1]; 15.625 g ai/ha, read-out: Velvetleaf damage rating (100=total damage to plant; 0=no damage to plant)) was 0%, the pest or weed control at 62.5 g/ha ([1]; 62.5 g ai/ha, 100=total damage to plant, 0=no damage to plant, read-out: plant damage rating, Velvetleaf) was 0% and the pest or weed control at 250 g/ha ([1]; 250 g ai/ha, read-out: Velvetleaf damage rating (100=total damage to plant; 0=no damage to plant)) was 20%. The plant injury at 15.625 g/ha ([2]; 15.625 g ai/ha, read-out: Corn damage rating (100=total damage to plant; 0=no damage to plant)) was 0%, the plant injury at 62.5 g/ha ([2]; 62.5 g ai/ha, 100=total damage to plant, 0=no damage to plant, read-out: plant damage rating, Corn) was 0% and the plant injury at 250 g/ha ([2]; 250 g ai/ha, read-out: Corn damage rating (100=total damage to plant; 0=no damage to plant)) was 0%. The pest or weed control at 15.625 g/ha ([3]; 15.625 g ai/ha, read-out: Foxtail, Giant damage rating (100=total damage to plant; 0=no damage to plant)) was 0%, the pest or weed control at 62.5 g/ha ([3]; 62.5 g ai/ha, 100=total damage to plant, 0=no damage to plant, read-out: plant damage rating, Foxtail, Giant) was 40% and the pest or weed control at 250 g/ha ([3]; 250 g ai/ha, read-out: Foxtail, Giant damage rating (100=total damage to plant; 0=no damage to plant)) was 80%. It also gave a pest or weed control at 15.625 g/ha ([4]; 15.625 g ai/ha, read-out: Pigweed, Redroot damage rating (100=total damage to plant; 0=no damage to plant)) of 0%, a pest or weed control at 62.5 g/ha ([4]; 62.5 g ai/ha, 100=total damage to plant, 0=no damage to plant, read-out: plant damage rating, Pigweed, Redroot) of 20% and a pest or weed control at 250 g/ha ([4]; 250 g ai/ha, read-out: Pigweed, Redroot damage rating (100=total damage to plant; 0=no damage to plant)) of 60%. It also gave a pest or weed control at 15.625 g/ha ([5]; 15.625 g ai/ha, read-out: Barnyard grass damage rating (100=total damage to plant; 0=no damage to plant)) of 0%, a pest or weed control at 62.5 g/ha ([5]; 62.5 g ai/ha, 100=total damage to plant, 0=no damage to plant, read-out: plant damage rating, Barnyardgrass) of 0% and a pest or weed control at 250 g/ha ([5]; 250 g ai/ha, read-out: Barnyardgrass damage rating (100=total damage to plant; 0=no damage to plant)) of 70%. It also gave a pest or weed control at 15.625 g/ha ([6]; 15.625 g ai/ha, read-out: Morning-glory, Ivy-leaved damage rating (100=total damage to plant; 0=no damage to plant)) of 0%, a pest or weed control at 62.5 g/ha ([6]; 62.5 g ai/ha, 100=total damage to plant, 0=no damage to plant, read-out: plant damage rating, Morningglory, Ivy-leaved) of 10% and a pest or weed control at 250 g/ha ([6]; 250 g ai/ha, read-out: Morningglory, Ivy-leaved damage rating (100=total damage to plant; 0=no damage to plant)) of 100%. It also gave a pest or weed control at 15.625 g/ha ([7]; 15.625 g ai/ha, evaluated after 13 days (100=total damage to plant; 0=no damage to plant), read-out: Velvetleaf damage rating) of 0%, a pest or weed control at 62.5 g/ha ([7]; 62.5 g ai/ha, evaluated after 13 days, read-out: Velvetleaf damage rating (100=total damage to plant; 0=no damage to plant)) of 0% and a pest or weed control at 250 g/ha ([7]; 250 g ai/ha, evaluated after 13 days, read-out: damage to plant, Velvetleaf (100=total damage to plant; 0=no damage to plant)) of 10%. For the same compound, the plant injury at 15.625 g/ha ([8]; 15.625 g ai/ha, evaluated after 13 days (100=total damage to plant; 0=no damage to plant), read-out: Corn damage rating) was 0%, the plant injury at 62.5 g/ha ([8]; 62.5 g ai/ha, evaluated after 13 days, read-out: Corn damage rating (100=total damage to plant; 0=no damage to plant)) was 0% and the plant injury at 250 g/ha ([8]; 250 g ai/ha, evaluated after 13 days, read-out: damage to plant, Corn (100=total damage to plant; 0=no damage to plant)) was 10%. It also gave a pest or weed control at 15.625 g/ha ([9]; 15.625 g ai/ha, evaluated after 13 days (100=total damage to plant; 0=no damage to plant), read-out: Foxtail, Giant damage rating) of 0%, a pest or weed control at 62.5 g/ha ([9]; 62.5 g ai/ha, evaluated after 13 days, read-out: Foxtail, Giant damage rating (100=total damage to plant; 0=no damage to plant)) of 60% and a pest or weed control at 250 g/ha ([9]; 250 g ai/ha, evaluated after 13 days, read-out: damage to plant, Foxtail, Giant (100=total damage to plant; 0=no damage to plant)) of 80%. For the same compound, the pest or weed control at 15.625 g/ha ([10]; 15.625 g ai/ha, evaluated after 13 days (100=total damage to plant; 0=no damage to plant), read-out: Pigweed, Redroot damage rating) was 0%, the pest or weed control at 62.5 g/ha ([10]; 62.5 g ai/ha, evaluated after 13 days, read-out: Pigweed, Redroot damage rating (100=total damage to plant; 0=no damage to plant)) was 10% and the pest or weed control at 250 g/ha ([10]; 250 g ai/ha, evaluated after 13 days, read-out: damage to plant, Pigweed, Redroot (100=total damage to plant; 0=no damage to plant)) was 40%. It also gave a pest or weed control at 15.625 g/ha ([11]; 15.625 g ai/ha, evaluated after 13 days (100=total damage to plant; 0=no damage to plant), read-out: Barnyardgrass damage rating) of 0%, a pest or weed control at 62.5 g/ha ([11]; 62.5 g ai/ha, evaluated after 13 days, read-out: Barnyardgrass damage rating (100=total damage to plant; 0=no damage to plant)) of 30% and a pest or weed control at 250 g/ha ([11]; 250 g ai/ha, evaluated after 13 days, read-out: damage to plant, Barnyardgrass (100=total damage to plant; 0=no damage to plant)) of 70%. For the same compound, the pest or weed control at 15.625 g/ha ([12]; 15.625 g ai/ha, evaluated after 13 days (100=total damage to plant; 0=no damage to plant), read-out: Morningglory, Ivy-leaved damage rating) was 0%, the pest or weed control at 62.5 g/ha ([12]; 62.5 g ai/ha, evaluated after 13 days, read-out: Morningglory, Ivy-leaved damage rating (100=total damage to plant; 0=no damage to plant)) was 10% and the pest or weed control at 250 g/ha ([12]; 250 g ai/ha, evaluated after 13 days, read-out: damage to plant, Morningglory, Ivy-leaved (100=total damage to plant; 0=no damage to plant)) was 20%.
